Several values for one entry are separate records, joined by “and”; a condition that tells them apart may be missing. Equal entries are not always repeated. Where two headings read alike, the source gives them in different places. Each block holds one compound with its values, some of them ahead of it.
Experiments:
[1] = Log P; assay type: physicochemical
[2] = system: pUC19 plasmid DNA; assay: pUC19 plasmid DNA damage by gel electrophoresis (Example 4); assay type: biochemical; details: for DNA damage when exposed to light: 40 J/cm^2 >400 nm light
Protocol: Their DNA damaging properties were assessed with pUC19 plasmid DNA using gel electrophoresis. […] Samples were then incubated for 24 hours at room temperature protected from light. Controls were prepared to simulate single and double strand DNA breaks, and the DNA samples resolved on agarose gels. Samples were resolved using 1% agarose gels prepared in tris-acetate (TA) buffer. Each lane was loaded with 0.3 μg of pUC19 and the samples run for 90 minutes at […]. The gels were stained with 500 ng/mL ethidium bromide in TA buffer at room temperature for 40 minutes. […] In contrast, 10 is a more hydrophilic molecule, and the negatively charged sulfonate functional groups were anticipated to cause electrostatic repulsions between the complex and the negatively charged backbone of the DNA. DNA precipitation or smearing was not observed with up to 500 μM of […] (FIG. 12B).

[3] = system: HL60 cells; assay: Cell viability as a function of time; assay type: cell-based, human; details: irradiated; for cell viability: 2 hours
[4] = system: HL60 cells; assay: Mitochondrial membrane potential (TMRE); assay type: cell-based, human; details: for effect on mitochondrial potential: dark and irradiated
Description: FIGS. 14A to 14D includes charts showing mitochondrial potential and cell viability of HL60 cells as a function of time for (FIG. 14A) 9, dark, (FIG. 14B) 9, irradiated; (FIG. 14C) 10, dark; (FIG. 14D) 10, irradiated. TMRE was used to quantify membrane potential; values are relative to a no-compound control value of 100.
TMRE is a cationic dye that accumulates in active motochondria as a result of the negative membrane potential (Δψm).

[5] = system: A549 cells; assay: Uptake and subcellular localization by Apoptome microscopy; assay type: cell-based, human
Protocol: The emission of 9 and 10 was measured in A549 cells using an Apoptome microscope. The relative rates of uptake of each of the complexes were analyzed as a function of time, and both 9 and 10 were visible inside cells as early as 2 hours after compound addition, consistent with the flow data and the ICP-OES results. Images were taken at 2, 8, 18 and 24 hours, and intracellular levels of both complexes appeared to plateau around 8 hours.
Differences in the intracellular localization of 9 and 10 were evaluated by determining colocalization of luminescence of the compound and fluorescent markers of organelles in A549 cells. Overlap in signals between the compounds, cellular nucleus, mitochondria and lysosome was measured over a 24 hour period.

[6] = system: HL60 cells; assay: Western blot of PARP and caspase 3 cleavage; assay type: cell-based, human; details: for 55 kDa PARP fragment (marker for necrosis): protected from light and irradiated
Protocol: Given the different cellular localization properties and time profiles for cell death induced by 9 and 10, the mechanism of cell death was investigated. Indicators of apoptotic cell death (activation of PARP and caspase 3 through proteolysis) were determined in HL60 cells treated with either 9 or 10 (FIGS. 15A and 15B).
The generation of an alternate 55 kDa PARP fragment was determined by immunoblot as a marker for necrosis with 10% (v/v) ethanol used as a control that induces necrosis.

[7] = system: HL60 cells; assay: Genomic DNA laddering by gel electrophoresis; assay type: cell-based, human; details: dark / not irradiated
Description: To further analyze the mechanisms of cell death induced by 9 and 10, the degradation pattern of genomic DNA was investigated. DNA laddering was observed as a result of DNA fragmentation stemming from the execution phase of apoptosis. In contrast, necrotic cell death lacked this characteristic laddering effect, allowing differentiation between these two mechanisms. […] This laddering was absent in the cells treated with ethanol and compounds 9 and 10 in the dark. […] In contrast, given the cytotoxicity of 9 in the dark and the presence of the 55 kDa PARP fragment, it appears that necrotic cell death is one pathway for […]. For compound 10 the absence of DNA laddering may be a result of the lack of cytotoxicity of the negatively charged compound.

[8] = system: pUC19 plasmid; assay: Glutathione assay: pUC19 crosslinking with increasing GSH; assay type: biochemical; details: 30 μM compound, 0.01-40 mM GSH; 4 light-activated
Protocol: The concentrations of GSH were 0.01, 0.1, 1, 10, 40 mM, giving a molar ratio between the compounds and glutathione of a) 1:0.3, b) 1:3.3, c) 1:33, d) 1:333, e) 1:1333. […] Control reactions with pUC19 in the presence and absence of GSH were carried out for 12 hrs in the dark with 25 μg/ml plasmid and 40 mM GSH in 10 mM phosphate buffer, pH 7.5. The plasmid was resolved on a 1% agarose gel as described above.
(§1) The photoactivated DNA crosslinking Ru(bpy)2 species retained its ability to damage DNA, even at higher GSH concentrations.

[9] = Interaction of prodrug compounds with GSH by UV/Vis spectroscopy; assay type: physicochemical; details: period of days
Description: as §1

[10] = system: HL60 promyelocytic leukemia cell line; assay: Cell survival assay, HL60; assay type: cell-based
Protocol: (§2) The HL60 promyelocytic leukemia cell line was obtained from ATCC and cultured in IMDM media (Invitrogen; Carlsbad, Calif.) supplemented with 10% serum supreme (Lonza; Basel, Switzerland) and penicillin/streptomycin at 37° C. with 5% CO2. The A549 cell line was donated and cultured in DMEM supplemented with glutamax, 10% serum supreme, and penicillin/streptomycin at 37° C. with 5% CO2. Cells were plated in Optimem (Life Technologies; Carlsbad, Calif.) supplemented with 1% serum supreme and penicillin/streptomycin at 30,000 cells per well in Costar 96 well flat bottom clear tissue culture treated plates for HL60 and 1500 cells/well for A549. […] The cells were then incubated for 72 hours followed by the addition of Cell Titer Glo (Promega; Madison, Wis.) to determine viability. Dark controls were run in parallel. The resulting luminescence was measured using the SpectraFluor Plus Plate Reader (Tecan). Data were fit to an equation for a sigmoidal dose response using the equation below, where yi and yf are the initial and final signal intensities.
(§3) Cell cytotoxicity studies were performed in HL60 leukemia cells and A549 lung cancer cells (see FIG. 7 and Table 3). Cells were incubated with compounds for 12 hours in the dark before irradiated with >450 nm light (410 W) for 3 minutes. Dark controls were run in parallel. Cell survival was quantified 72 hours later through the use of an ATP luciferase assay, and confirmed by Trypan Blue staining and manual counting.

[11] = system: A549 lung cancer cells; assay: Cell survival assay, A549 monolayer; assay type: cell-based
Protocol: as §2, §3

[12] = system: A549 tumor spheroids; assay: A549 tumor spheroid cytotoxicity; assay type: cell-based
Protocol: A549 cells were seeded at 2,500 cells/well in 1.5% agarose coated 96-well plates. After 7 days the spheroids were dosed with compounds and incubated for 12 hrs. […] Cellular viability was determined 72 hours after light activation for the irradiated samples and at the same time point for the dark samples by measuring ATP concentration with CellTiter Glo (Promega). Data were fit to an equation for sigmoidal dose response shown above using the Prism software package.
3D tumor spheroids were used to test the compounds. Spheroids provide a system that approximates the complexity of in vivo tumors. These spheroids mimic the pathophysiology of tumors, including hypoxic/necrotic regions, changes in cell shape, high proportions of quiescent cells, alterations in gene expression profiles, and diminished permeability to drugs. […] To characterize the light-activated ruthenium compounds under more challenging and biologically relevant conditions, efficacy was assessed in a 3D tumor model by forming tumor spheroids with A549 cells.
Spheroids of about 600 μm in diameter were dosed with compounds and then either kept in the dark or irradiated with >450 nm light for 3 minutes.

[13] = system: A549 cells; assay: Glutathione assay in A549 cells (cytoprotection); assay type: cell-based; details: co-dosed with increasing GSH
[14] = system: HL60 leukemia cells and A549 lung cancer cells; assay: Cell cytotoxicity studies, summary over HL60 and A549; assay type: cell-based
Protocol: as §2, §3

[15] = Light and dark cytotoxicity of exemplary compounds (Table 6); assay type: cell-based; details: for IC50: cell line not stated; for Phototoxicity Index: dark IC50/light IC50
Description: This Example describes additional specific embodiments the presently-disclosed subject matter. […] The methods for making and characterizing the compounds are based on the methodologies described in the previous examples.

[16] = system: pUC19 plasmid; assay: Plasmid-compound gel analysis (Example 2); details: visible light 200 W, 1 hour
[17] = Photoejection followed by UV/Vis absorption spectroscopy (Example 2); details: >450 nm light
[18] = system: HL60 cells
[19] = system: HL60 cells; remark: listed apart in the source
[20] = Photoejection half-life of 8 in solvents; assay type: physicochemical; details: D2O vs H2O
Description: The photochemical behaviour of 8 paralleled the photophysical characteristics of unstrained Ru^II complexes containing the dppz ligand.

[21] = system: calf thymus (CT) DNA; assay type: physicochemical; details: bovine
[22] = system: 15 mer oligonucleotide A; assay type: physicochemical
Description: (§4) The G-quadruplex sequence is [NT].

[23] = system: G-quadruplex [AGGG(TTAGGG)3]; assay type: physicochemical
Description: as §4

[24] = target: CT DNA; assay: DNA binding affinity (Kb) with CT DNA; set-up: species or system calf; details: racemic mixtures
Description: Intercalation of both complexes was consistent with the reduced mobility of supercoiled plasmid DNA in agarose gels, and the modulation of the absorption spectra in the presence of DNA, characterized by hypochromism of both the π-π* of the dppz ligand and the MLCT transitions, with maximal effect at a ratio of 2:1 DNA base pairs to metal center. Thus, the strained complex retained DNA-sensing capabilities of other Ru^II “light-switch” molecules and photochemical reactivity.

Log P [1]: 1.8 ± 0.02
Compound: Ru(bathophenanthroline)3 [Compound 9]
DNA damage when exposed to light [2]: induced single strand DNA breaks | concentrations at which precipitation of the complex with the DNA was observed ([2]; light and dark): above 31.3 μM | time to cell death after irradiation [3]: ≤ 2 h | cell viability [3]: about 0% | effect on mitochondrial potential [4]: rapid and complete depolarization of mitochondria | mitochondrial function ([4]; dark, 2 hours post treatment): completely impaired | mitochondrial function ([4]; within 2 hours of irradiation): about 0% | time at which intracellular levels plateau [5]: around 8 hours | PARP and caspase 3 activation ([6]; absence of light): after 18 and 24 hours and to a lesser degree | PARP and caspase 3 activation ([6]; irradiated): induced the proteolytic activation of both PARP and caspase 3 within 2 hours of irradiation | 55 kDa PARP fragment (marker for necrosis) [6]: produced this fragment at significant levels | genomic DNA laddering [7]: absent

Compound: Cc1cccc(-c2cccc(C)n2)n1.F[P-](F)(F)(F)(F)F.F[P-](F)(F)(F)(F)F.[Ru+2].c1ccc(-c2ccccn2)nc1.c1ccc(-c2ccccn2)nc1 [Compound 4, Ru(bpy)2-6,6′dmbpy]
plasmid DNA crosslinking in presence of increasing GSH [8]: greater DNA binding than cisplatin | interaction with GSH [9]: did not interact with GSH | IC50 ([10]; 3 min >450 nm light, 72 hours, read-out: Light IC50 HL60): 1600 nM | IC50 ([10]; dark, read-out: Dark IC50 HL60): > 300000 nM | Phototoxicity Index, PI HL60 ([10]; ratio of dark and light IC50): >188 | IC50 ([11]; 3 min >450 nm light, 72 hours, read-out: Light IC50 A549): 1.1 µM | IC50 ([11]; dark, read-out: Dark IC50 A549): 150 µM | Phototoxicity Index, PI A549 ([11]; ratio of dark and light IC50): 136 | IC50 ([12]; 3 min >450 nm light, 72 hours, read-out: Light IC50 A549 spheroid): 21 µM and 21.3 µM | IC50 ([12]; dark, read-out: Dark IC50 A549 spheroid): > 300 µM | MCR Index ([12]; ratio of spheroid and monolayer culture IC50): 19.4 | effect of GSH on cytotoxicity [13]: not | activity light versus dark ([14]; >450 nm light 3 minutes vs dark): light-triggered toxicity | IC50 values after irradiation ([14]; after irradiation): single μM IC50 values | dark toxicity (none observed up to this concentration) ([14]; dark): > 300 µM | IC50 ([15]; read-out: Dark IC50): 300 µM | IC50 ([15]; read-out: Light IC50): 1.5 µM | Phototoxicity Index [15]: 200 | type of DNA damage upon visible light [16]: DNA photobinding | reaction kinetics of 4 relative to 5 [17]: 30 fold

Compound: O=S(=O)([O-])c1ccc(-c2ccnc3c2ccc2c(-c4ccc(S(=O)(=O)[O-])cc4)ccnc23)cc1.O=S(=O)([O-])c1ccc(-c2ccnc3c2ccc2c(-c4ccc(S(=O)(=O)[O-])cc4)ccnc23)cc1.O=S(=O)([O-])c1ccc(-c2ccnc3c2ccc2c(-c4ccc(S(=O)(=O)[O-])cc4)ccnc23)cc1.[Ru+2] [Compound 10, Ru(bathophenanthorlinedisulfonate)3]
Log P [1]: −2.2 ± 0.12 | DNA damage when exposed to light [2]: induced single strand DNA breaks | cell viability [3]: 70±12% | viable cells remaining ([3]; 24 hours): 70% and 59±4% | viable cells remaining ([3]; 48 hours): 55% | effect on mitochondrial potential [4]: did not significantly reduce the mitochondrial potential | time at which intracellular levels plateau [5]: around 8 hours | PARP and caspase 3 activation ([6]; absence of light): did not display PARP or caspase 3 cleavage | PARP and caspase 3 activation ([6]; irradiated): induced PARP as early as 2 hours | 55 kDa PARP fragment (marker for necrosis) [6]: lower level of the 55 kDa PARP fragment | genomic DNA laddering [7]: absent | increase of average emission of cells between 2 and 24 hours [18]: 4 fold | amount within the cells after irradiation [19]: 1.6%

Half-life [21]: 41 ± 2 min | t1/2 values [21]: 31 to 41 min | Half-life [22]: 31 ± 0.5 min | Half-life [23]: 13.5 min | Kb [24]: 3e+07 M⁻¹
Compound: Ru(bpy)2dmdppz [Compound 8]
isotope effect of ejection [20]: > 3.4 | increase of photoejection rate compared to CT DNA ([23]; bound to G-quadruplex): 3 fold | IC50 ([15]; read-out: Dark IC50): 65 µM | IC50 ([15]; read-out: Light IC50): 14 µM | Phototoxicity Index [15]: 4.6

From patent publication US9290528B1, “Light-activated compounds” (University of Kentucky Research Foundation, priority 2013, dated 2016)
